Measurements from US9999636B2, “Insulin-mimetics as therapeutic adjuncts for bone regeneration” (Rutgers, The State University of New Jersey, priority 2010, dated 2018).
Marks after values point to notes of the source that are not given here.

Columns and labels:
[1] = tested on: closed mid-diaphyseal femur fracture; settings: four weeks post-fracture
Text: X-rays are taken at two-week intervals to the day of euthanasia. After euthanasia x-rays are taken as well. To take x-rays, animals will be given a half dose of anesthesia. All groups will be monitored closely for four days after surgery for infection, and the ability to ambulate freely.

[2] = 10.0 mg/kg local, no carrier
Text: Diabetic Resistance (DR) BB Wistar rats used in the study were obtained from a breeding colony at UMDNJ-New Jersey Medical School (NJMS). The rats were housed under controlled environmental conditions and fed ad libitum. All research protocols were approved by the Institutional Animal Care and Use Committee at University of Medicine and Dentistry of New Jersey-New Jersey Medical School.
Doses of ZnCl2 were not based on each animal's body weight, but on a lower theoretically tolerable dose for a 290-gram BB Wistar rat, which would not elicit heavy metal poisoning or behavioral changes. This weight is over 50 grams lower than the average weight of non-diabetic BB Wistar rats at an age of approximately 90 days (the age of investigation in this study). A 0.1 ml volume of the ZnCl2 solution was administered locally via a single injection into the marrow space for each dose examined.

[3] = tested on: closed mid-diaphyseal femur fracture; test: Torsional mechanical testing of fractured femora, local ZnCl2 with or without CaSO4 carrier; type: in vivo, BB Wistar rat; set-up: Percent Effective Shear Stress: scale not given: direction of the effect not stated beside the values; settings: for mode of torsional failure: femurs harvested 4 weeks post-surgery (FIG. 2)
Text: In addition to the biomechanical parameters determined through torsional testing, the mode of failure can also provide substantial information. The mode of torsional failure as determined by gross inspection provided an indication as to the extent of healing. A spiral failure in the mid-diaphyseal region indicated a complete union while a transverse failure through the fracture site indicated a nonunion. A combination spiral/transverse failure indicated a partial union (FIG. 2).
To prepare the ZnCl2/CaSO4 mixture, CaSO4 (2 g) were placed in glass vials. The vials were placed in an autoclave and sterilized […] in a dry cycle. CaSO4 powder (0.8 g) was mixed with 400 μl of saline or 400 μl of ZnCl2 solution (1.0 mg/kg) for one minute at room temperature. The mixture was packed into the barrel of a 1 cc sterile syringe and pushed down into the open orifice of the syringe barrel by insertion of the syringe plunger. After attaching an 18-gauge sterile needle to the syringe barrel, 0.1 ml volume of the mixture was directly injected into the rat femoral canal (non-diabetic BB Wistar rat) prior to Kirschner wire insertion and fracture.

[4] = tested on: posterolateral intertransverse lumbar fusion L4-L5; test: Radiographic grading of posterolateral lumbar spinal fusion; type: in vivo, Sprague-Dawley rat; settings: n = 10, eight weeks
[5] = high dose 1.0 mg/kg Calcium Sulfate pellet, 1 mg/kg
[6] = low dose 0.5 mg/kg Calcium Sulfate pellet, listed as zinc, 0.5 mg/kg

## manganese chloride [MnCl2]
[1]; 0.25 mg/kg, vs saline controls
  mineralized tissue on radiographs: increased mineralized tissue
[1]; saline control had no evidence of union
  union on radiographs: demonstrated union at the subperiosteal bony area and at the callus

## [Cl-].[Cl-].[Zn+2] [ZnCl2, Zinc chloride]
[2]
  Blood Glucose 12 Hours Post-Surgery: 87.7 ± 8.5 ^a mg/dl
[3]; 1.0 mg/kg
  mode of torsional failure: spiral fracture indicative of healing
[3]; 3.0 mg/kg
  mode of torsional failure: spiral fracture indicative of healing
[3]; 10.0 mg/kg, no carrier, 4 weeks post-fracture, normalized to contralateral (intact) femur
  Percent Effective Shear Stress: 27 ± 11%
[3]; applied directly to fracture site, instead of average eight to ten weeks in standard rat femur fracture model
  time in which fracture healing resolved: four to five weeks

## [Zn] [Zn]
[4]; [5]
  Radiographs: number graded A = solid fusion mass bilaterally: 7
  Radiographs: number graded D = Graft resorption: 0
[4]; [6]
  Radiographs: number graded A = solid fusion mass bilaterally: 7/10
  Radiographs: number graded D = Graft resorption: 0/10
